Assay results as given in patent publication US20060088529A1, “Bispecific monoclonal antibodies to IL-12 and IL-18” (priority 2000, published 2006).

Assays:
NK-92 cells = test: IFN-γ production in NK-92 cells (ELISA); assay type: cell-based, human; settings: IL-12 10 pM, 16 to 24 hours
Protocol: (§1) Two assays show the bioactivity of IL-12 and IL-18 alone. NK-92 is a natural killer line derived from a patient with malignant […] lymphoma. KG-1 is a myelomonocytic line derived from a patient with acute myelogenous leukemia. NK-92 and KG-1 cells constitutively express the IL-12 and IL-18 receptors, respectively.
(§2) KG-1 cells were cultured in serum-free medium for 24 hours, and then plated at 1×10^6 cells/ml in 96-well plates. As indicated, IL-18 (50 nM) or DEX (20 nM) were added. NK-92 cells were cultured in the presence of 10 U/ml IL-2, and plated at 2.5×10^4 viable (Trypan Blue negative) cells/ml in 96-well plates. As indicated, IL-12 (10 pM) or DEX (20 nM) were added. The KG-1 and NK-92 cells were incubated for 16 to 24 hours, and the amount of IFN-γ in the culture medium was determined using the Biosource Cytoscreen IFN-γ ELISA kit.

KG-1 cells = test: IFN-γ production in KG-1 cells (ELISA); assay type: cell-based, human; settings: IL-18 50 nM, 16 to 24 hours
Protocol: as §1, §2

## Interleukin-12 [IL-12]
NK-92 cells
  IFN-γ production: induce IFN-γ production

## Interleukin-18 [IL-18]
KG-1 cells
  IFN-γ production: induce IFN-γ production
